# Assay results taken from patent US10597388B2, “Pyridazinone herbicides” (FMC CORPORATION, priority 2014, dated 2020).
# Read-outs that look alike come from different tables or passages of the source.
# Key:
# Format in all cases: in vivo
# [1] = test system: sedge, umbrella (small-flower umbrella sedge, Cyperus difformis); assay: Test B flooded paddy test; details: 250 g ai/ha, Flood, visual rating on scale of 0 to 100 where 0 is no effect and 100 is complete control, 13 to 15 d after treatment
# Protocol: (§1) Plant species in the flooded paddy test selected from rice (Oryza sativa), sedge, umbrella (small-flower umbrella sedge, Cyperus difformis), ducksalad (Heteranthera limosa), and barnyardgrass (Echinochloa crus-galli) were grown to the 2-leaf stage for testing. At time of treatment, test pots were flooded to 3 cm above the soil surface, treated by application of test compounds directly to the paddy water, and then maintained at that water depth for the duration of the test. Treated plants and controls were maintained in a greenhouse for 13 to 15 d, after which time all species were compared to controls and visually evaluated. Plant response ratings, summarized in Table B, are based on a scale of 0 to 100 where 0 is no effect and 100 is complete control. A dash (-) response means no test result.
# [2] = test system: barnyardgrass (Echinochloa crus-galli); assay: Test B flooded paddy test; details: 250 g ai/ha, Flood, visual rating on scale of 0 to 100 where 0 is no effect and 100 is complete control, 13 to 15 d after treatment
# Protocol: as §1
# [3] = test system: ducksalad (Heteranthera limosa); assay: Test B flooded paddy test; details: 250 g ai/ha, Flood, visual rating on scale of 0 to 100 where 0 is no effect and 100 is complete control, 13 to 15 d after treatment
# Protocol: as §1
# rice (Oryza sativa) = assay: Test B flooded paddy test; details: 250 g ai/ha, Flood, visual rating on scale of 0 to 100 where 0 is no effect and 100 is complete control, 13 to 15 d after treatment
# Protocol: as §1
# [4] = test system: galium (catchweed bedstraw, Galium aparine); assay: Test A greenhouse herbicide test, postemergence
# Excerpt: (§2) At the same time, plants selected from these crop and weed species and also blackgrass (Alopecurus myosuroides), and galium (catchweed bedstraw, Galium aparine) were planted in pots containing the same blend of loam soil and sand and treated with postemergence applications of test chemicals formulated in the same manner. Plants ranged in height from 2 to 10 cm and were in the one- to two-leaf stage for the postemergence treatment. Treated plants and untreated controls were maintained in a greenhouse for approximately 10 d, after which time all treated plants were compared to untreated controls and visually evaluated for injury. Plant response ratings, summarized in Table A, are based on a 0 to 100 scale where 0 is no effect and 100 is complete control. A dash (-) response means no test result.
# [5] = test system: blackgrass (Alopecurus myosuroides); assay: Test A greenhouse herbicide test, postemergence
# Excerpt: as §2
# kochia (Kochia scoparia) = assay: Test A greenhouse herbicide test, pre- and postemergence; details: for pest or weed control at 1000 g/ha: Bassia scoparia, 240 h, 1000 g ai/ha
# Excerpt: (§3) Seeds of plant species selected from barnyardgrass (Echinochloa crus-galli), kochia (Kochia scoparia), ragweed (common ragweed, Ambrosia elatior), ryegrass, Italian (Italian ryegrass, Lolium multiflorum), crabgrass, large (large crabgrass, Digitaria sanguinalis), foxtail, giant (giant foxtail, Setaria faberii), momingglory (Ipomoea spp.), pigweed (Amaranthus retroflexus), velvetleaf (Abutilon theophrasti), wheat (Triticum aestivum), and corn (Zea mays) were planted into a blend of loam soil and sand and treated preemergence with a directed soil spray using test chemicals formulated in a non-phytotoxic solvent mixture which included a surfactant.
# as §2
# [6] = test system: ryegrass, Italian (Italian ryegrass, Lolium multiflorum); assay: as above; details: for pest or weed control at 1000 g/ha: Lolium multiflorum, 240 h, 1000 g ai/ha
# Excerpt: as §3, §2
# [7] = test system: foxtail, giant (giant foxtail, Setaria faberii); assay: as above; details: for pest or weed control at 1000 g/ha: Setaria faberi, 240 h, 1000 g ai/ha
# Excerpt: as §3, §2
# [8] = test system: barnyardgrass (Echinochloa crus-galli); assay: as above; details: for pest or weed control at 1000 g/ha: Echinochloa crus-galli, 240 h, 1000 g ai/ha
# Excerpt: as §3, §2
# [9] = test system: pigweed (Amaranthus retroflexus); assay: as above; details: for pest or weed control at 1000 g/ha: Amaranthus retroflexus, 240 h, 1000 g ai/ha
# Excerpt: as §3, §2
# [10] = test system: ragweed (common ragweed, Ambrosia elatior); assay: as above; details: for pest or weed control at 1000 g/ha: Ambrosia artemisiifolia, 240 h, 1000 g ai/ha
# Excerpt: as §3, §2
# corn (Zea mays) = assay: as above; details: Postemergence
# Excerpt: as §3, §2
# [11] = test system: wheat (Triticum aestivum); assay: as above; details: Postemergence
# Excerpt: as §3, §2
# [12] = 125 g ai/ha, 0 to 100 scale, 0 no effect, 100 complete control
# [13] = 500 g ai/ha, visual rating after approx. 10 d, 0 to 100 scale (0 no effect, 100 complete control)
# [14] = Postemergence, 125 g ai/ha, 0 to 100 scale, 0 no effect, 100 complete control
# [15] = Postemergence, 500 g ai/ha, visual rating after approx. 10 d, 0 to 100 scale (0 no effect, 100 complete control)
# [16] = Preemergence, 125 g ai/ha, visual injury rating, 0 to 100 scale (0 no effect, 100 complete control), approx. 10 d
# [17] = Preemergence, 500 g ai/ha, 0 to 100 scale where 0 is no effect and 100 is complete control
smiles,measurement,setting,value
"CCc1ccc2oc(C)c(-c3c(O)c(C)nn(C)c3=O)c2c1 [Compound 13, 4-(5-ethyl-2-methyl-3-benzofuranyl)-5-hydroxy-2,6-dimethyl-3(2H)-pyridazinone]",pest or weed control at 250 g/ha,"[1]; Cyperus difformis, 360 h, read-out: Plant response rating, Sedge, Umbrella",0%
same,pest or weed control at 250 g/ha,"[2]; Echinochloa crus-galli, 360 h, read-out: Plant response rating, Barnyardgrass",0%
same,pest or weed control at 250 g/ha,"[3]; Heteranthera limosa, 360 h, read-out: Plant response rating, Ducksalad",0%
same,plant injury at 250 g/ha,"rice (Oryza sativa); Oryza sativa, 360 h, read-out: Plant response rating, Rice",0%
same,pest or weed control at 1000 g/ha,"[4]; Galium, post-emergence, 240 h, 1000 g ai/ha, 0 to 100 scale, 0 is no effect, 100 is complete control, read-out: Galium plant response rating",70%
same,pest or weed control at 1000 g/ha,"[5]; Alopecurus myosuroides, post-emergence, 240 h, 1000 g ai/ha, 0 to 100 scale, 0 is no effect, 100 is complete control, read-out: Blackgrass plant response rating",30%
same,pest or weed control at 1000 g/ha,"kochia (Kochia scoparia); post-emergence, Postemergence, 0 to 100 scale, 0 is no effect, 100 is complete control, read-out: Kochia plant response rating",30%
same,pest or weed control at 1000 g/ha,"kochia (Kochia scoparia); pre-emergence, Preemergence, 0 to 100 scale, 0 no effect, 100 complete control, read-out: Plant response rating, Kochia",20%
same,pest or weed control at 1000 g/ha,"[6]; post-emergence, Postemergence, 0 to 100 scale, 0 is no effect, 100 is complete control, read-out: Ryegrass, Italian plant response rating",70%
same,pest or weed control at 1000 g/ha,"[6]; pre-emergence, Preemergence, 0 to 100 scale, 0 no effect, 100 complete control, read-out: Plant response rating, Ryegrass, Italian",60%
same,pest or weed control at 1000 g/ha,"[7]; post-emergence, Postemergence, 0 to 100 scale, 0 is no effect, 100 is complete control, read-out: Foxtail, Giant plant response rating",80%
same,pest or weed control at 1000 g/ha,"[7]; pre-emergence, Preemergence, 0 to 100 scale, 0 no effect, 100 complete control, read-out: Plant response rating, Foxtail, Giant",50%
same,pest or weed control at 1000 g/ha,"[8]; post-emergence, Postemergence, 0 to 100 scale, 0 is no effect, 100 is complete control, read-out: Barnyardgrass plant response rating",80%
same,pest or weed control at 1000 g/ha,"[8]; pre-emergence, Preemergence, 0 to 100 scale, 0 no effect, 100 complete control, read-out: Plant response rating, Barnyardgrass",60%
same,pest or weed control at 1000 g/ha,"[9]; post-emergence, Postemergence, 0 to 100 scale, 0 is no effect, 100 is complete control, read-out: Pigweed plant response rating",20%
same,pest or weed control at 1000 g/ha,"[9]; pre-emergence, Preemergence, 0 to 100 scale, 0 no effect, 100 complete control, read-out: Plant response rating, Pigweed",0%
same,pest or weed control at 1000 g/ha,"[10]; post-emergence, Postemergence, 0 to 100 scale, 0 is no effect, 100 is complete control, read-out: Ragweed plant response rating",30%
same,pest or weed control at 1000 g/ha,"[10]; pre-emergence, Preemergence, 0 to 100 scale, 0 no effect, 100 complete control, read-out: Plant response rating, Ragweed",0%
same,plant injury at 1000 g/ha,"corn (Zea mays); Zea mays, post-emergence, 240 h, 1000 g ai/ha, 0 to 100 scale, 0 is no effect, 100 is complete control, read-out: Corn plant response rating",20%
same,plant injury at 1000 g/ha,"[11]; Triticum aestivum, post-emergence, 240 h, 1000 g ai/ha, 0 to 100 scale, 0 is no effect, 100 is complete control, read-out: Wheat plant response rating",20%
Cc1ccc2ccccc2c1-c1c(OS(C)(=O)=O)c(Br)nn(C)c1=O [Compound 155],"Plant response rating, Sedge, Umbrella",[1],65
same,"Plant response rating, Barnyardgrass",[2],0
same,"Plant response rating, Ducksalad",[3],50
same,"Plant response rating, Rice",rice (Oryza sativa),20
same,"Plant response rating, Galium",[4]; [12],90
same,"Plant response rating, Galium",[4]; [13],90
same,"Plant response rating, Blackgrass",[5]; [12],60
same,"Plant response rating, Blackgrass",[5]; [13],70
same,"Plant response rating, Kochia",kochia (Kochia scoparia); [14],70
same,"Plant response rating, Kochia",kochia (Kochia scoparia); [15],80
same,"Plant response rating, Kochia",kochia (Kochia scoparia); [16],20
same,"Plant response rating, Kochia",kochia (Kochia scoparia); [17],90
same,"Plant response rating, Ryegrass, Italian",[6]; [14],90
same,"Plant response rating, Ryegrass, Italian",[6]; [15],90
same,"Plant response rating, Ryegrass, Italian",[6]; [16],70
same,"Plant response rating, Ryegrass, Italian",[6]; [17],90
same,"Plant response rating, Foxtail, Giant",[7]; [14],80
same,"Plant response rating, Foxtail, Giant",[7]; [15],90
same,"Plant response rating, Foxtail, Giant",[7]; [16],60
same,"Plant response rating, Foxtail, Giant",[7]; [17],90
same,"Plant response rating, Barnyardgrass",[8]; [14],30
same,"Plant response rating, Barnyardgrass",[8]; [15],80
same,"Plant response rating, Barnyardgrass",[8]; [16],50
same,"Plant response rating, Barnyardgrass",[8]; [17],80
same,"Plant response rating, Pigweed",[9]; [14],90
same,"Plant response rating, Pigweed",[9]; [15],100
same,"Plant response rating, Pigweed",[9]; [16],100
same,"Plant response rating, Pigweed",[9]; [17],100
same,"Plant response rating, Ragweed",[10]; [14],100
same,"Plant response rating, Ragweed",[10]; [15],100
same,"Plant response rating, Ragweed",[10]; [16],90
same,"Plant response rating, Ragweed",[10]; [17],90
same,"Plant response rating, Corn",corn (Zea mays); [12],0
same,"Plant response rating, Corn",corn (Zea mays); [13],20
same,"Plant response rating, Wheat",[11]; [12],30
same,"Plant response rating, Wheat",[11]; [13],50
